Reference: patent publication US20240417393A1, “CERTAIN 2,5-DIAZABICYCLO[4.2.0]OCTANES AS GLP-1 RECEPTOR MODULATORS” (ASTRAZENECA AB, priority 2021, published 2024)

Tests used:
[1] = target: T1, human GLP-1R receptor (Homo sapiens, UniProt P43220, L260F); assay: CHOK1 GLP-1R cAMP Assay (HTRF); assay type: cell-based; conditions: CHO-K1 cells stably expressing human GLP-1R (Leu260Phe variant), 20 min at rt
T1 construct: expressed in transfected cells; host or cells: CHO-K1 (ATCC CCL-61)

[2] = target: T2, GLP-1R in a pancreatic insulinoma cell line (EndoC-PH1) (Homo sapiens, UniProt P43220); assay: EndoC cAMP Accumulation Assay (HTRF); assay type: cell-based; conditions: EndoC-PH1 human pancreatic beta cell line, endogenous GLP-1R, 30 min at rt
T2 construct: host or cells: EndoC-βH1 human pancreatic beta cell line
Method in brief: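 Thawed human EndoC-βH1 cells, about 3000 per well, stimulated with compound 30 min at room temperature in HBSS/HEPES pH 7.4 with 0.1% BSA and 0.5 mM IBMX; cAMP by competitive HTRF. Responses as % activation relative to maximal GIP (82.5 nM), 4-parameter logistic fit.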

[3] = target: T3, human phosphodiesterase-3A (Homo sapiens, UniProt Q14432); assay: PDE3 Assay ([3H]cAMP to 5'AMP, SPA); assay type: biochemical; conditions: human recombinant PDE3A expressed in Sf9 cells; 450 nM cAMP; 20 min at 22° C.
T3 construct: host or cells: Sf9 (Spodoptera frugiperda) cells
Protocol: Evaluation of the effects of compounds on the activity of the human phosphodiesterase-3A is quantified by measuring the formation of 5′AMP from cAMP using a human recombinant is enzyme expressed in a clonal isolate of Spodoptera frugiperda cells (Sf9) cells.
The test compound, reference compound or water (control) are added to a buffer containing 40 mM tris(hydroxymethyl)aminomethane (Tris)/HCl (pH 7.4) and 8 mM MgCl2, 450 nMcAMP and 0.25 μCi [^3H]cAMP.
Thereafter, the reaction is initiated by addition of the enzyme (about 1U) and the mixture is incubated for 20 min at 22° C.
For basal control measurements, the enzyme is omitted from the reaction mixture.
Following incubation SPA beads are added. After 30 min at 22° C. under shaking, the amount of [^3H]5′AMP is quantified with a scintillation counter (Topcount, Packard).
The results are expressed as a percent inhibition of the control enzyme activity. The standard inhibitory reference compound is milrinone (CAS number 78415-72-2), which is tested in each experiment at several concentrations to obtain an inhibition curve from which its IC50 value is calculated.

T2 sequence (P43220 24-463): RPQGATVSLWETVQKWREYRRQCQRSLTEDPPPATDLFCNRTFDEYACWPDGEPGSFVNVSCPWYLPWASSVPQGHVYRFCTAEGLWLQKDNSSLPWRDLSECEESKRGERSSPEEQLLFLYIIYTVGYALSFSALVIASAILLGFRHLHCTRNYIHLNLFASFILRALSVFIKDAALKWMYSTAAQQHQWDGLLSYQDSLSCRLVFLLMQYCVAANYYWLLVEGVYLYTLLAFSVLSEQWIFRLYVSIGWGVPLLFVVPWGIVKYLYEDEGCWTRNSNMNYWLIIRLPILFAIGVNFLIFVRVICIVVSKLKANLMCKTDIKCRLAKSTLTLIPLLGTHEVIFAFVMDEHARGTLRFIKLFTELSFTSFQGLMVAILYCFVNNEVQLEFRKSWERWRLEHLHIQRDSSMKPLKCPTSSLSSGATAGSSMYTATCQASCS
T1 sequence (P43220 24-463 L260F): as the sequence (P43220 24-463) above, with L237F counted along it
T3 sequence (Q14432 whole entry): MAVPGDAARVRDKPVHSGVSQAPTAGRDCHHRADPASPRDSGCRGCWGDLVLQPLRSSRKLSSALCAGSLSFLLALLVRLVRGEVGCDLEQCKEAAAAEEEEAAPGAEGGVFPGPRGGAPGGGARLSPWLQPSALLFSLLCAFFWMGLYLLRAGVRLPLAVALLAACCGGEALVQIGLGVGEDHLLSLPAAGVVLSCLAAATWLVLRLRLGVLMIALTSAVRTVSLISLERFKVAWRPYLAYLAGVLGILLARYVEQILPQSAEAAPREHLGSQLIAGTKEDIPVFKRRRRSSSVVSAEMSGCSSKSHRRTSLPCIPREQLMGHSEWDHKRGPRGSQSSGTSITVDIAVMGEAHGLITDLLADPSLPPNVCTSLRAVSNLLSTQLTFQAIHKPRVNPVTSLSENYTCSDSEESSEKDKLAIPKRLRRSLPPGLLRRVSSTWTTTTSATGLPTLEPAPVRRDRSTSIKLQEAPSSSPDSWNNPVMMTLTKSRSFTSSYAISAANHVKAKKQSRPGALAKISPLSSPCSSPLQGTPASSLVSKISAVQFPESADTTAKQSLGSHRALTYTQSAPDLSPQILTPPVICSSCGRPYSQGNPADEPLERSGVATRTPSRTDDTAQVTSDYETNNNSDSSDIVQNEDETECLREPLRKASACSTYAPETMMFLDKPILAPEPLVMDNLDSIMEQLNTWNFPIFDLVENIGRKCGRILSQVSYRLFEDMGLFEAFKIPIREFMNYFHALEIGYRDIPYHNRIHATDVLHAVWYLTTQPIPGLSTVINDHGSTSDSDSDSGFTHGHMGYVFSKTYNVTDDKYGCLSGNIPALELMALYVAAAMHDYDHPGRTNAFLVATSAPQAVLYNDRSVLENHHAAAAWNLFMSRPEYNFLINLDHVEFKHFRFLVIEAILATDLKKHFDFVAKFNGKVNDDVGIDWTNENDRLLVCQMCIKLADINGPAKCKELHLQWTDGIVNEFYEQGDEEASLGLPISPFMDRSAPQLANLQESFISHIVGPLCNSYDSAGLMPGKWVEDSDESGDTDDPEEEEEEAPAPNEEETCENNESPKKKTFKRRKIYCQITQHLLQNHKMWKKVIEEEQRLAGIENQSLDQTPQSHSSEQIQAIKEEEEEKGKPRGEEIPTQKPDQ

| EC50 [1] [nM] | EC50 [2] [nM] | IC50 [3] [µM] | SMILES |
| --- | --- | --- | --- |
| 1.2 | 2.9 | > 87 | C[C@]1(c2ccc(Cl)cn2)Oc2cccc(N3CCN(Cc4nc5c(F)cc(C(=O)O)cc5n4C[C@@H]4CCO4)[C@H]4CC[C@H]43)c2O1 (single isomer, unassigned) [Example 1b, 2-(((1R*,6S*)-5-((R*)-2-(5-Chloropyridin-2-yl)-2-methylbenzo[d][1,3]dioxol-4-yl)-2,5-diazabicyclo[4.2.0]octan-2-yl)methyl)-4-fluoro-1-(((S)-oxetan-2-yl)methyl)-1H-benzo[d]imidazole-6-carboxylic acid] |
| 2.2 | 3.2 | > 100 | C[C@]1(c2ccc(Cl)cn2)Oc2cccc(N3CCN(Cc4nc5c(F)cc(C(=O)O)cc5n4C[C@@H]4CCO4)[C@H]4CC[C@H]43)c2O1 (single isomer, unassigned) [Example 1c, 2-((1R*,6S*)-5-(R*)-2-(5-Chloropyridin-2-yl)-2-methylbenzo[d][1,3]dioxol-4-yl)-2,5-diazabicyclo[4.2.0]octan-2-yl)methyl)-4-fluoro-1-(((S)-oxetan-2-yl)methyl)-1H-benzo[d]imidazole-6-carboxylic acid] |
| – | – | > 100 | COc1cc(C(=O)O)cc2c1nc(CN1CCN(c3cccc4c3O[C@@](C)(c3ccc(Cl)cn3)O4)[C@@H]3CC[C@@H]31)n2C[C@@H]1CCO1 (single isomer, unassigned) [Example 2a, 2-((1R*,6S*)-5-(R*)-2-(5-Chloropyridin-2-yl)-2-methylbenzo[d][1,3]dioxol-4-yl)-2,5-diazabicyclo[4.2.0]octan-2-yl)methyl)-4-methoxy-1-(((S)-oxetan-2-yl)methyl)-1H-benzo[d]imidazole-6-carboxylic acid] |
| – | – | > 100 | COc1cc(C(=O)O)cc2c1nc(CN1CCN(c3cccc4c3O[C@@](C)(c3ccc(Cl)cn3)O4)[C@@H]3CC[C@@H]31)n2C[C@@H]1CCO1 (single isomer, unassigned) [Example 2d, 2-((1R*,6S*)-5-(R*)-2-(5-Chloropyridin-2-yl)-2-methylbenzo[d][1,3]dioxol-4-yl)-2,5-diazabicyclo[4.2.0]octan-2-yl)methyl)-4-methoxy-1-(((S)-oxetan-2-yl)methyl)-1H-benzo[d]imidazole-6-carboxylic acid] |
| 0.9 | 2.6 | > 100 | C[C@]1(c2ccc(Cl)cn2)Oc2cccc(N3CCN(Cc4nc5c(Cl)cc(C(=O)O)cc5n4C[C@@H]4CCO4)[C@@H]4CC[C@H]43)c2O1 (single isomer, unassigned) [Example 3b] |
| 11 | 8.8 | > 100 | C[C@]1(c2ccc(Cl)cn2)Oc2cccc(N3CCN(Cc4nc5c(Cl)cc(C(=O)O)cc5n4C[C@@H]4CCO4)[C@H]4CC[C@@H]43)c2O1 (single isomer, unassigned) [Example 3c, 4-Chloro-2-(((1R*,6R*)-5-((R*)-2-(5-chloropyridin-2-yl)-2-methylbenzo[d][1,3]dioxol-4-yl)-2,5-diazabicyclo[4.2.0]octan-2-yl)methyl)-1-(((S)-oxetan-2-yl)methyl)-1H-benzo[d]imidazole-6-carboxylic acid] |
| – | – | > 100 | COc1cc(C(=O)O)cc2c1nc(CN1CCN(c3cccc4c3O[C@@](C)(c3ccc(Cl)cn3)O4)[C@H]3CC[C@@H]31)n2C[C@@H]1CCO1 (single isomer, unassigned) [Example 6a, 2-(((1R*,6R*)-5-((R*)-2-(5-Chloropyridin-2-yl)-2-methylbenzo[d][1,3]dioxol-4-yl)-2,5-diazabicyclo[4.2.0]octan-2-yl)methyl)-4-methoxy-1-(((S)-oxetan-2-yl)methyl)-1H-benzo[d]imidazole-6-carboxylic acid] |
| 64 | 160 | – | C[C@]1(c2ccc(Cl)cn2)Oc2cccc(N3CCN(Cc4nc5c(Cl)cc(C(=O)O)cc5n4CC4(CC#N)CC4)[C@H]4CC[C@@H]43)c2O1 (single isomer, unassigned) [Example 26c] |
| 10 | 7 | – | C[C@]1(c2ccc(Cl)cn2)Oc2cccc(N3CCN(Cc4nc5c(Cl)cc(C(=O)O)cc5n4CC4(CC#N)CC4)[C@H]4CC[C@@H]43)c2O1 (single isomer, unassigned) [Example 26d] |
